# Source: ChEMBL document CHEMBL1799932, “Antimalarial pyrido[1,2-a]benzimidazoles” (J Med Chem, 2011)
# Experiments:
# Rattus norvegicus [1] = experiment: Cmax in fasted Sprague-Dawley rat assessed as 1-(2-Ethylaminoethylamino)-3-[4-(trifluoromethyl)phenyl]- pyrido[1,2-a]benzimidazole-4-carbonitrile level at 5 mg/kg, iv after 48 hrs by LC-MS analysis; format: ADME, organism-based; parameters: dose 5 mg/kg, route intravenous; conditions: in vivo
# Rattus norvegicus [2] = experiment: AUC (0 to tlast) in fasted Sprague-Dawley rat assessed as 1-(2-Ethylaminoethylamino)-3-[4-(trifluoromethyl)phenyl]- pyrido[1,2-a]benzimidazole-4-carbonitrile level at 20 mg/kg, po after 48 hrs by LC-MS analysis; format: ADME, organism-based, Plasma; parameters: time < 48 hr, dose 20 mg/kg, route oral; conditions: in vivo
# Plasmodium berghei [3] = experiment: Antimalarial activity against GFP-transfected Plasmodium berghei strain ANKA infected in NMRI mouse assessed as increase in mean survival time at 50 mg/kg, po administered as single dose (reference value: 5 days )
# Rattus norvegicus [4] = experiment: Drug excretion in fasted Sprague-Dawley rat urine assessed as 1-(2-Ethylaminoethylamino)-3-[4-(trifluoromethyl)phenyl]- pyrido[1,2-a]benzimidazole-4-carbonitrile level at 5 mg/kg, iv after 48 hrs by LC-MS analysis; format: ADME, organism-based; parameters: dose 5 mg/kg, route intravenous; conditions: in vivo
# Rattus norvegicus [5] = experiment: Tmax in fasted Sprague-Dawley rat assessed as 1-(2-Diethylaminoethylamino)-3-[4-(trifluoromethyl)phenyl]-pyrido[1,2-a]benzimidazole-4-carbonitrile at 20 mg/kg, po after 48 hrs by LC-MS analysis; format: ADME, organism-based; parameters: dose 20 mg/kg, route oral; conditions: in vivo
# Rattus norvegicus [6] = experiment: AUC (0 to tlast) in fasted Sprague-Dawley rat assessed as 1-(2-Ethylaminoethylamino)-3-[4-(trifluoromethyl)phenyl]- pyrido[1,2-a]benzimidazole-4-carbonitrile level at 5 mg/kg, iv after 48 hrs by LC-MS analysis; format: ADME, organism-based, Plasma; parameters: time < 48 hr, dose 5 mg/kg, route intravenous; conditions: in vivo
# Rattus norvegicus [7] = experiment: Drug excretion in fasted Sprague-Dawley rat urine assessed as 1-(2-Diethylaminoethylamino)-3-[4-(trifluoromethyl)phenyl]-pyrido[1,2-a]benzimidazole-4-carbonitrile at 5 mg/kg, iv after 48 hrs by LC-MS analysis; format: ADME, organism-based; parameters: dose 5 mg/kg, route intravenous; conditions: in vivo
# [8] = Metabolic stability in rat liver microsomes assessed as intrinsic clearance per mg protein after 60 mins by LC-MS analysis; format: ADME, Microsome
# Plasma [9] = experiment: Plasma protein binding in mouse assessed as 1-(2-Diethylaminoethylamino)-3-[4-(trifluoromethyl)phenyl]-pyrido[1,2-a]benzimidazole-4-carbonitrile at 5 mg/kg, iv after 48 hrs by LC-MS analysis; format: ADME, organism-based; parameters: dose 5 mg/kg, route intravenous; conditions: in vivo
# Rattus norvegicus [10] = experiment: Apparent half life in fasted Sprague-Dawley rat assessed as 1-(2-Diethylaminoethylamino)-3-[4-(trifluoromethyl)phenyl]-pyrido[1,2-a]benzimidazole-4-carbonitrile at 5 mg/kg, iv after 48 hrs by LC-MS analysis; format: ADME, organism-based; parameters: dose 5 mg/kg, route intravenous; conditions: in vivo
# Plasmodium berghei [11] = experiment: Antimalarial activity against GFP-transfected Plasmodium berghei strain ANKA infected in NMRI mouse assessed as reduction in parasitemia at 50 mg/kg, po administered as single dose measured on day 5 by FACS analysis; format: functional; parameters: scale not given: the % may be the effect or the level left
# Plasmodium berghei [12] = experiment: Antimalarial activity against GFP-transfected Plasmodium berghei strain ANKA infected in NMRI mouse assessed as reduction in parasitemia at 50 mg/kg, po administered as single dose measured on day 4 by FACS analysis; format: functional; parameters: scale not given: the % may be the effect or the level left
# L6 = experiment: Cytotoxicity at rat L6 cells after 72 hrs by microplate alamar blue assay; format: cell-based; conditions: l6
# Plasmodium berghei [13] = experiment: Antimalarial activity against GFP-transfected Plasmodium berghei strain ANKA infected in NMRI mouse assessed as reduction in parasitemia at 25 mg/kg, po administered as single dose measured on day 4 by FACS analysis; format: functional; parameters: scale not given: the % may be the effect or the level left
# Plasmodium berghei [14] = experiment: Antimalarial activity against GFP-transfected Plasmodium berghei strain ANKA infected in NMRI mouse assessed as reduction in parasitemia at 50 mg/kg/day, ip administered for 4 consecutive days measured 24 hrs after last treatment by FACS analysis relative to control; format: functional; parameters: scale not given: the % may be the effect or the level left; conditions: route intraperitoneal
# [15] = Metabolic stability in human liver microsomes assessed as intrinsic clearance per mg protein after 60 mins by LC-MS analysis; format: ADME, Microsome
# Rattus norvegicus [16] = experiment: Cmax in fasted Sprague-Dawley rat assessed as 1-(2-Diethylaminoethylamino)-3-[4-(trifluoromethyl)phenyl]-pyrido[1,2-a]benzimidazole-4-carbonitrile at 20 mg/kg, po after 48 hrs by LC-MS analysis; format: ADME, organism-based; parameters: dose 20 mg/kg, route oral; conditions: in vivo
# Plasmodium berghei [17] = experiment: Antimalarial activity against GFP-transfected Plasmodium berghei strain ANKA infected in NMRI mouse assessed as reduction in parasitemia at 25 mg/kg, po administered as single dose measured on day 2 by FACS analysis; format: functional; parameters: scale not given: the % may be the effect or the level left
# Plasmodium berghei [18] = experiment: Antimalarial activity against GFP-transfected Plasmodium berghei strain ANKA infected in NMRI mouse assessed as reduction in parasitemia at 50 mg/kg, po administered as single dose measured on day 2 by FACS analysis; format: functional; parameters: scale not given: the % may be the effect or the level left
# Rattus norvegicus [19] = experiment: Apparent half life in fasted Sprague-Dawley rat assessed as 1-(2-Diethylaminoethylamino)-3-[4-(trifluoromethyl)phenyl]-pyrido[1,2-a]benzimidazole-4-carbonitrile at 20 mg/kg, po after 48 hrs by LC-MS analysis; format: ADME, organism-based; parameters: dose 20 mg/kg, route oral; conditions: in vivo
# Rattus norvegicus [20] = experiment: Tmax in fasted Sprague-Dawley rat assessed as 1-(2-Ethylaminoethylamino)-3-[4-(trifluoromethyl)phenyl]- pyrido[1,2-a]benzimidazole-4-carbonitrile level at 5 mg/kg, iv after 48 hrs by LC-MS analysis; format: ADME, organism-based; parameters: dose 5 mg/kg, route intravenous; conditions: in vivo
# Plasmodium berghei [21] = experiment: Antimalarial activity against GFP-transfected Plasmodium berghei strain ANKA infected in NMRI mouse assessed as increase in mean survival time at 25 mg/kg, po administered as single dose (reference value: 5 days )
# Rattus norvegicus [22] = experiment: Tmax in fasted Sprague-Dawley rat assessed as 1-(2-Ethylaminoethylamino)-3-[4-(trifluoromethyl)phenyl]- pyrido[1,2-a]benzimidazole-4-carbonitrile level at 20 mg/kg, po after 48 hrs by LC-MS analysis; format: ADME, organism-based; parameters: dose 20 mg/kg, route oral; conditions: in vivo
# Rattus norvegicus [23] = experiment: Oral bioavailability in fasted Sprague-Dawley rat assessed as 1-(2-Diethylaminoethylamino)-3-[4-(trifluoromethyl)phenyl]-pyrido[1,2-a]benzimidazole-4-carbonitrile at 20 mg/kg, po after 48 hrs by LC-MS analysis; format: ADME, organism-based; conditions: in vivo
# Plasmodium berghei [24] = experiment: Antimalarial activity against GFP-transfected Plasmodium berghei strain ANKA infected in NMRI mouse assessed as increase in median survival time at 50 mg/kg/day, ip administered for 4 days measured up to 30 days post infection (reference value: 5 to 7 days); format: functional; conditions: route intraperitoneal
# [25] = Metabolic stability in mouse liver microsomes assessed as intrinsic clearance per mg protein after 60 mins by LC-MS analysis; format: ADME, Microsome
# [26] = Metabolic stability in rat liver microsomes assessed as degradation half life after 60 mins by LC-MS analysis; format: ADME, Microsome
# Plasmodium berghei [27] = experiment: Antimalarial activity against GFP-transfected Plasmodium berghei strain ANKA infected in NMRI mouse assessed as reduction in parasitemia at 25 mg/kg, po administered as single dose measured on day 3 by FACS analysis; format: functional; parameters: scale not given: the % may be the effect or the level left
# Plasma [28] = experiment: Plasma protein binding in human assessed as 1-(2-Diethylaminoethylamino)-3-[4-(trifluoromethyl)phenyl]-pyrido[1,2-a]benzimidazole-4-carbonitrile at 5 mg/kg, iv after 48 hrs by LC-MS analysis; format: ADME, organism-based; parameters: dose 5 mg/kg, route intravenous; conditions: in vivo
# Rattus norvegicus [29] = experiment: AUC (0 to tlast) in fasted Sprague-Dawley rat assessed as 1-(2-Diethylaminoethylamino)-3-[4-(trifluoromethyl)phenyl]-pyrido[1,2-a]benzimidazole-4-carbonitrile at 20 mg/kg, po after 48 hrs by LC-MS analysis; format: ADME, organism-based, Plasma; parameters: time < 48 hr, dose 20 mg/kg, route oral; conditions: in vivo
# [30] = Metabolic stability in human liver microsomes assessed as degradation half life after 60 mins by LC-MS analysis; format: ADME, Microsome
smiles,measurement,setting,value
CCN(CC)CCNc1cc(-c2ccc(C(F)(F)F)cc2)c(C#N)c2nc3ccccc3n12.Cl.Cl,Cmax,Rattus norvegicus [1],540 nM
same,AUClast,Rattus norvegicus [2],1032 µM·min
same,MSD,Plasmodium berghei [3],8 days
same,Activity,Rattus norvegicus [4],0.08%
same,Tmax,Rattus norvegicus [5],4.13 h
same,AUClast,Rattus norvegicus [6],666 µM·min
same,Activity,Rattus norvegicus [7],0.39%
same,microsomal CLint,[8],69.8 µL/min/mg
same,PPB,Plasma [9],97.9%
same,t1/2(app),Rattus norvegicus [10],7.3 h
same,Activity,Plasmodium berghei [11],78.22%
same,Activity,Plasmodium berghei [12],59.97%
same,IC50,L6,89.6 µM
same,Activity,Plasmodium berghei [13],51.13%
same,Activity,Plasmodium berghei [14],91.9%
same,microsomal CLint,[15],127 µL/min/mg
same,Cmax,Rattus norvegicus [16],380 nM
same,Activity,Plasmodium berghei [17],13.07%
same,Activity,Plasmodium berghei [18],5.15%
same,t1/2(app),Rattus norvegicus [19],6.4 h
same,Tmax,Rattus norvegicus [20],10.7 h
same,MSD,Plasmodium berghei [21],8 days
same,Tmax,Rattus norvegicus [22],20 h
same,F,Rattus norvegicus [23],> 22%
same,MSD,Plasmodium berghei [24],10 days
same,microsomal CLint,[25],71.8 µL/min/mg
same,half-life,[26],0.413 h
same,Activity,Plasmodium berghei [27],24.38%
same,PPB,Plasma [28],96.7%
same,AUClast,Rattus norvegicus [29],290 µM·min
same,half-life,[30],0.228 h
